Here are results for one compound from publication PMC6154344, “Hibiscus sabdariffa L. and Its Bioactive Constituents Exhibit Antiviral Activity against HSV-2 and Anti-Enzymatic Properties against Urease by an ESI-MS Based Assay” (Molecules : A Journal of Synthetic Chemistry and Natural …, 2017).

This assay concerns the target Urease (Type III, from Canavalia ensiformis) (Canavalia ensiformis, UniProt P07374). The assay is described as follows: ESI-MS (MRM) assay of urea depletion by purified urease, […] min pre-incubation with inhibitor. In kind it is biochemical.

What is called IC50 is the concentration that inhibits the measured activity by half.

Sequence of Urease (Type III, from Canavalia ensiformis) (P07374 whole entry): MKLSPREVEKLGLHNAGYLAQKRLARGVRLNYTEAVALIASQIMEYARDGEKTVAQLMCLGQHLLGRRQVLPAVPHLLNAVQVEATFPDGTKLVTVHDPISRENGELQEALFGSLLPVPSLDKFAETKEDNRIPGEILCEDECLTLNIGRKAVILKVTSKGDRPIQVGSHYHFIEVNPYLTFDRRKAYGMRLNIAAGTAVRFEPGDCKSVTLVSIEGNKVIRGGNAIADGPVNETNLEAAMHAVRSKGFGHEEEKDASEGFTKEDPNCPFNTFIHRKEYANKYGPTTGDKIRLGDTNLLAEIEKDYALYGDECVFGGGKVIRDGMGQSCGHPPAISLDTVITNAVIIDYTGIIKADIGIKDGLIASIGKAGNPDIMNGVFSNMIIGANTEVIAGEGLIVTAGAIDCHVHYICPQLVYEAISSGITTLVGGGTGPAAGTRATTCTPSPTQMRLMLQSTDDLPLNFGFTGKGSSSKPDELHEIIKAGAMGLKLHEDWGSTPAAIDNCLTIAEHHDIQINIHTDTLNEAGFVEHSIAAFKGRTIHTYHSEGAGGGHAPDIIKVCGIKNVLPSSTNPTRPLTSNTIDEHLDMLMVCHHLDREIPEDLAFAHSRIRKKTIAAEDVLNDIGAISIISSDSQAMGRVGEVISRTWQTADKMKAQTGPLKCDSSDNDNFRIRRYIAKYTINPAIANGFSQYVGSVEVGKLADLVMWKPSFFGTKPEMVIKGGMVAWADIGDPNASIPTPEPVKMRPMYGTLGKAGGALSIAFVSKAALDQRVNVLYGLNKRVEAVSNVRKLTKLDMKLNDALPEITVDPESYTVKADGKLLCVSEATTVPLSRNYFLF

Consider `CC(=O)NO` [AHA, acetohydroxamic acid], for which the IC50 amounted to 4.3 µM.
